The record followed here is patent US9556111B2, “Tertiary amines for use in the treatment of cardiac disorders” (Universitetet I Oslo, priority 2012, dated 2017).

By solubility is commonly meant how much of the substance goes into solution per volume.

In series [1] the test system is metabolically active cells. Briefly: Cell viability luminescence assay. The series is classed as cell-based. The conditions noted are these: 24 hours incubation. On the procedure:
Compound toxicity was measured in a luminescence assay that gives a signal proportional to the amount of metabolically active cells in the sample; the assay was performed as described by the supplier. All synthesized compounds were tested in the viability assay, and viability was registered at 24 hours and 72 hours.

Series [2] is described as follows: Aqueous solubility of free bases and various salts by dissolution at room temperature. The series is classed as physicochemical. Conditions: water, thermodynamic from solid. How it is done:
The aqueous solubility of various amine compounds and their corresponding salts were determined by dissolution of various amounts of the respective compounds at room temperature.

The mark [3] stands for this setting: HCl salt, read-out: Solubility HCl salt.
[4] abbreviates: free base, read-out: Solubility free base.
Setting [5] is: mesylate salt, read-out: Solubility Mesylate salt.

Like-named read-outs stand apart in the source and are kept apart here.

For the compound `Fc1ccc(CN(Cc2ccncc2)Cc2ccc(F)cc2)cc1` [Compound 2a, N,N-bis(4-fluorobenzyl)-1-(pyridin-4-yl)methanamine], the “Viability (100 μM) 24 hours” value in series [1] came to 0.85.
For the compound `Fc1ccc(CN(Cc2ccc(F)cc2)Cc2nccs2)cc1` [Compound 2c, N,N-bis(4-fluorobenzyl)-1-(thiazol-2-yl)methanamine], the “Viability (100 μM) 24 hours” value in series [1] amounted to 1.11.
Regarding `COc1ccc(CN(Cc2ccc(OC)cc2)Cc2nccs2)cc1` [Compound 2d, N,N-bis(4-methoxybenzyl)-1-(thiazol-2-yl)methanamine], the “Viability (100 μM) 24 hours” value in series [1] worked out at 1.15.
On the same count and under the same terms, then `COc1ccc(CN(Cc2ccccc2)Cc2ccc(OC)cc2)cc1` [Compound 2e, N-benzyl-N-(4-methoxybenzyl)-1-(4-methoxyphenyl)methanamine], with 1.01.
For the compound `COC(=O)c1ccc(CN(Cc2ccccc2)Cc2ccc(C(=O)OC)cc2)cc1` [Compound 17, dimethyl 4,4′-((benzylazanediyl)bis(methylene))dibenzoate], the solubility in series [2] (setting [3]), in series [2] (setting [4]) and in series [2] (setting [5]) was under 360 µg/mL each time.
As to `O=C(O)c1ccc(CN(Cc2ccccc2)Cc2ccc(C(=O)O)cc2)cc1` [Compound 18], the solubility in series [2] (setting [3]), in series [2] (setting [4]) and in series [2] (setting [5]) was under 50 µg/mL in each case.
For the compound `CC(C)(C)c1ccc(CN(Cc2ccccc2)Cc2ccc(C(C)(C)C)cc2)cc1` [Compound 19, N-benzyl-N-(4-(tert-butyl)benzyl)-1-(4-(tert-butyl)phenyl)methanamine], the solubility in series [2] (setting [3]), in series [2] (setting [4]) and in series [2] (setting [5]) was under 50 µg/mL in each case.
Turning to `O=[N+]([O-])c1ccc(CN(Cc2ccccc2)Cc2ccc([N+](=O)[O-])cc2)cc1` [Compound 20, N-benzyl-N-(4-nitrobenzyl)-1-(4-nitrophenyl)methanamine], the solubility in series [2] (setting [3]), in series [2] (setting [4]) and in series [2] (setting [5]) was under 3000 µg/mL in each case.
In the case of `Nc1ccc(CN(Cc2ccccc2)Cc2ccc(N)cc2)cc1` [Compound 22, 4-(((4-aminobenzyl)(benzyl)amino)methyl)aniline], the solubility in series [2] (setting [3]) was 4500 µg/mL; in series [2] (setting [4]), under 50 µg/mL; in series [2] (setting [5]), over 22000 µg/mL.
`CCN(CC)c1ccc(CN(Cc2ccccc2)Cc2ccc(N(CC)CC)cc2)cc1` [Compound 23, 4-((benzyl(4-(diethylamino)benzyl)amino)methyl)-N,N-diethylaniline]: the results for the solubility in series [2] (setting [3]), in series [2] (setting [4]) and in series [2] (setting [5]) were 15000 µg/mL, under 50 µg/mL and over 34000 µg/mL, respectively.
The corresponding values for `Cc1ccc(NC(=O)Nc2ccc(CN(Cc3ccccc3)Cc3ccc(NC(=O)Nc4ccc(C)cc4)cc3)cc2)cc1` [Compound 25, 1,1′-(((benzylazanediyl)bis(methylene))bis(4,1-phenylene))bis(3-(p-tolyl)urea)] are under 50 µg/mL, under 50 µg/mL and under 50 µg/mL.
Regarding `O=C(Nc1ccc(F)cc1)Nc1ccc(CN(Cc2ccccc2)Cc2ccc(NC(=O)Nc3ccc(F)cc3)cc2)cc1` [Compound 26, 1,1′-(((benzylazanediyl)bis(methylene))bis(4,1-phenylene))bis(3-(4-fluorophenyl)urea)], the solubility in series [2] (setting [3]), in series [2] (setting [4]) and in series [2] (setting [5]) was under 1500 µg/mL in each case.
`O=C(Nc1ccccc1)Nc1ccc(CN(Cc2ccccc2)Cc2ccc(NC(=O)Nc3ccccc3)cc2)cc1` [Compound 27, 1,1′-(((benzylazanediyl)bis(methylene))bis(4,1-phenylene))bis(3-phenylurea)]: the solubility in series [2] (setting [3]), in series [2] (setting [4]) and in series [2] (setting [5]) was under 500 µg/mL in each case.
Regarding `CN(C)c1ccc(CN(Cc2ccccc2)Cc2ccc(N(C)C)cc2)cc1` [Compound 29, 4-((benzyl(4-(dimethylamino)benzyl)amino)methyl)-N,N-dimethylaniline], the solubility in series [2] (setting [3]) is 6000 µg/mL; in series [2] (setting [4]), under 160 µg/mL; in series [2] (setting [5]), 94000 µg/mL.
